Target: T1, human DOR (T7-tagged, HEK293 cells) (Homo sapiens, UniProt P41143)
T1 construct: gene OPRD1
Assay: CellKey impedance assay, agonist
Format: cell-based
Details: morphine up to 10^−5 M, no OT, partial agonist, EC50 n.d.

T1 sequence (P41143 whole entry, looked up): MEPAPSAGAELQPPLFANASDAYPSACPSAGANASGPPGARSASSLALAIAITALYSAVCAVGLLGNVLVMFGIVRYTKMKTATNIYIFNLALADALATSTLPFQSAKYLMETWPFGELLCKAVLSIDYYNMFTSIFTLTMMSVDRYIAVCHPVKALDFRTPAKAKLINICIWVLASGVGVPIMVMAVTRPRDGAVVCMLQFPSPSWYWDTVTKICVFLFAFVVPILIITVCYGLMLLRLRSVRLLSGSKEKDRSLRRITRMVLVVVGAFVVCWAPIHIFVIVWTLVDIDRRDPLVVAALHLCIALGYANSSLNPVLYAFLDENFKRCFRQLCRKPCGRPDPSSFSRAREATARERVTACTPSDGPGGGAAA

With CN1CC[C@]23c4c5ccc(O)c4O[C@H]2[C@@H](O)C=C[C@H]3[C@H]1C5 [morphine] the “maximum response (% of SNC80 Emax)” value was 50.6 ± 7.01%.

— paper PMC8534029 (Cells, 2021)
